Key:
[1] = target: T1, androgen receptor (AR) (Homo sapiens, UniProt P10275); assay: Androgen receptor degradation, western blot; assay type: cell-based; details: AR degradation potency, cell line not stated
T1 construct: endogenous in cells
T1 sequence (P10275 1-920): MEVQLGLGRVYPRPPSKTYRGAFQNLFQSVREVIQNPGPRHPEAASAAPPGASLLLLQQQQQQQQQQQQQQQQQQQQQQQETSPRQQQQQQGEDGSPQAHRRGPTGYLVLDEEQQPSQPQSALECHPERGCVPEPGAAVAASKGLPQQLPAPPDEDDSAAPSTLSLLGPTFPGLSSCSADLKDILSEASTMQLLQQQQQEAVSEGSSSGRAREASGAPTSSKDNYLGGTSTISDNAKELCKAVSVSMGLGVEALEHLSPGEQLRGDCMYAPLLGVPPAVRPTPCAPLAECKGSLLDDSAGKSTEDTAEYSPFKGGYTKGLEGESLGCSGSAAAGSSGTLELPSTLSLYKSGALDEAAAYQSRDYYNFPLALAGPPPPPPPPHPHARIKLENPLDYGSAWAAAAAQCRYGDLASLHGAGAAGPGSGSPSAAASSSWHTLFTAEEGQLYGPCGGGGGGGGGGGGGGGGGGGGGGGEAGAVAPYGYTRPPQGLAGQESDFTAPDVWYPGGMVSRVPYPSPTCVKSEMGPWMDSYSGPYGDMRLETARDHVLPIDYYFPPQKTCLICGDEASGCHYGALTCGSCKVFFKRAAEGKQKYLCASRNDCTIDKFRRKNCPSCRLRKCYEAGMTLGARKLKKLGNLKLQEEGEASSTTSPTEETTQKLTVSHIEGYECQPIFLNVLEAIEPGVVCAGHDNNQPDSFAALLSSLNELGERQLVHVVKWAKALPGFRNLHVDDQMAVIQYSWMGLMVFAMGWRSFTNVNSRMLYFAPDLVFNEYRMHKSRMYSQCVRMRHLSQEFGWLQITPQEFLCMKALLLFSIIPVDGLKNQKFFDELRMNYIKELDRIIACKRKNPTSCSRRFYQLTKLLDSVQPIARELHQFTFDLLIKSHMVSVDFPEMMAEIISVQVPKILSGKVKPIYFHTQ
Procedure: Western blot analysis was performed essentially as described previously. The cells treated with indicated compounds were lysed in Radioimmunoprecipitation Assay Protein Lysis and Extraction Buffer (25 mmol/L Tris.HCl, pH 7.6, 150 mmol/L NaCl, 1% Nonidet P-40, 1% sodium deoxycholate, and 0.1% sodium dodecyl sulfate) containing proteinase inhibitor cocktail (Roche Diagnostics, Mannheim, Germany). Equal amounts of total protein were electrophoresed through 10% SDS-polyacrylamide gels after determination of protein concentration by BCA assay (Fisher Scientific, Pittsburgh, PA). The separated protein bands were transferred onto PVDF membranes (GE Healthcare Life Sciences, Marlborough, MA) and blotted against different antibodies, as indicated. The blots were scanned, and the band intensities were quantified using GelQuant.NET software provided by biochemlabsolutions.com. The relative mean intensity of target proteins was expressed after normalization to the intensity of glyceraldehyde-3-phosphate dehydrogenase bands.

[2] = target: T2, BRD9 (Homo sapiens, UniProt Q9H8M2); assay: BRD9 HiBiT assay for protein degradation (HEK293 CRISPR knock-in); assay type: cell-based; details: for Dmax: HEK293, read-out: BRD9 HEK293 HiBit Dmax; for DC50: HEK293 CRISPR knock-in cells, 6 hrs
T2 construct: endogenous in cells; host or cells: HEK293 (CRISPR HiBiT knock-in)
T2 sequence (Q9H8M2 whole entry): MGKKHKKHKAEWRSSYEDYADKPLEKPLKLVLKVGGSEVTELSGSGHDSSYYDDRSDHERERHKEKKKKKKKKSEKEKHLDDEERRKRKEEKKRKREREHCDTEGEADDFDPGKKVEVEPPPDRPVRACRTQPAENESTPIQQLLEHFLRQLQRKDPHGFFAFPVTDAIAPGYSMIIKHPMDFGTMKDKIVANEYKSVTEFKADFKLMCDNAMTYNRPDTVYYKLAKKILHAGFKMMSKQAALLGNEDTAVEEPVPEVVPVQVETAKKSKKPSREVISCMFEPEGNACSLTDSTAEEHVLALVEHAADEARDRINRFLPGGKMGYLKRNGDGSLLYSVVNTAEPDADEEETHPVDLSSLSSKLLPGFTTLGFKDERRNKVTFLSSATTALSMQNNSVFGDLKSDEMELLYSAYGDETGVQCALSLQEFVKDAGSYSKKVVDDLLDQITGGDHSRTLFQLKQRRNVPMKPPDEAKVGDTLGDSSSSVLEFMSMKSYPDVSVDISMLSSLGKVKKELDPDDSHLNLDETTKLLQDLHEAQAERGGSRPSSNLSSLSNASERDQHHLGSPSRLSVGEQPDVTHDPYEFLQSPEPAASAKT
Procedure: HiBiT Assay for protein degradation:
The HiBit assay was performed using engineered HEK293 CRISPR knock-in cell utilizing the Nano-Glo HiBiT Lytic Detection System from Promega, Cat #N3040. Compounds were transferred, 25 nL DMSO or test compounds (final DMSO @ 0.1%) to intermediate plates (Corning3570) using ECHO550. Cells were seeded onto compounds at 2000 cells/25 μL/well and incubated for 6 hrs in tissue culture incubator at 37° C. and 5% CO2. The LgBiT Protein was diluted at 1:100 and the Nano-Glo® HiBiT Lytic Substrate 1:50 into an appropriate volume of room temperature using the Nano-Glo® HiBiT Lytic Buffer. At end of compound incubation time 15 ul of the detection reagent was added to each well (without LgBiT for negative control wells) using the Thermo Scientific multidrop combi. The plate was shaken for 10 mins at RT using Combi. After brief centrifugation (2000 rpm 1 mins), plate was read on Envision (Ultrasensitive luminescence model).

[3] = target: GST-tagged wild-type human CRBN protein (Homo sapiens, UniProt Q96SW2); assay: biochemical
GST-tagged wild-type human CRBN protein, sequence (Q96SW2 whole entry): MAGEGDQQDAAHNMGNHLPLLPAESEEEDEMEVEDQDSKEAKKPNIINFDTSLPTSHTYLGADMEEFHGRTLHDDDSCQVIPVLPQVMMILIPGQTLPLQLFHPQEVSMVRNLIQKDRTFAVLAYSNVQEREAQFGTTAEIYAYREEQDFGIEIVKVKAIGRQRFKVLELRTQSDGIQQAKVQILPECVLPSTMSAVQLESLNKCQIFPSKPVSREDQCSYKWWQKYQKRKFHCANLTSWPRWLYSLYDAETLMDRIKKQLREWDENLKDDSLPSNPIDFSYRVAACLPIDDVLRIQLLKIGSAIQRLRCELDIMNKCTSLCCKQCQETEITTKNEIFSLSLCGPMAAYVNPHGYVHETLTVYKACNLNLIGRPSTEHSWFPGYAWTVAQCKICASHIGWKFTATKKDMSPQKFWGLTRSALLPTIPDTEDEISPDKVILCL
Procedure: The binding to cereblon (CRBN) was determined using the Cereblon Binding Kit (Cisbio, #64BDCRBNPEG) following the manufacturer's instruction. Briefly, serially diluted compounds were incubated with GST-tagged wild-type human CRBN protein, XL665-labelled Thalidomide and Europium Cryptate labelled GST antibody at room temperature for about 3 hours.

[4] = target: T3, STAT3 (Homo sapiens, UniProt P40763); assay: STAT3 degradation HiBiT assay (STAT3-HIBIT KI HeLa); assay type: cell-based; details: STAT3-HIBIT KI HeLa cells, 24 hours
T3 construct: host or cells: HeLa (STAT3-HiBiT CRISPR knock-in clone)
T3 sequence (P40763 whole entry): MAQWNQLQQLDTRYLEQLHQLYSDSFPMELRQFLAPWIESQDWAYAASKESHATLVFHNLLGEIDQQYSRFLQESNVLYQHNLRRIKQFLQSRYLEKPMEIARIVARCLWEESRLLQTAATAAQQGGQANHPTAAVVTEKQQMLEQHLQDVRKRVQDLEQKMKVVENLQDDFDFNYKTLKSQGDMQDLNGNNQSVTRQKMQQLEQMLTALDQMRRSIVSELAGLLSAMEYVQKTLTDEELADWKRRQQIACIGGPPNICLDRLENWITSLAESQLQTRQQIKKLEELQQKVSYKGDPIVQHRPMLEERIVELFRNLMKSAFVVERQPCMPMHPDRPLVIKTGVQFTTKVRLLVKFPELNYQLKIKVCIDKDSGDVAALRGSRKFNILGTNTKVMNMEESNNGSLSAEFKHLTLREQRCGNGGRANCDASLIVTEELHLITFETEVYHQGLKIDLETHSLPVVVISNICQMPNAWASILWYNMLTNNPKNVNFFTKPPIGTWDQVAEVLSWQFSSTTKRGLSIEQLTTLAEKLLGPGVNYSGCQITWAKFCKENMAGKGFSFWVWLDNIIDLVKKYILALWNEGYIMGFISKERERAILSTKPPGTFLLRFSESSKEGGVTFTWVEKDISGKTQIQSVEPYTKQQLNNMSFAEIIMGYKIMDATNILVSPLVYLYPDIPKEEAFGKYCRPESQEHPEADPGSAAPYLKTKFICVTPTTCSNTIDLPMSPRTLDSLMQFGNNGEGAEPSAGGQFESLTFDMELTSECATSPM
Procedure: STAT3-HIBIT KI HeLa cell line was purchased from Promega. This cell line is a clone created by using CRISPR-Cas9 to fuse HiBIT to the 3′ end of STAT3 in HeLa cells. DMEM medium and FBS were purchased from Gibco/Thermo Fisher Scientific. STAT3 degradation was determined based on quantification of luminescent signal using Nano-Glo HiBIT Lytic Detection System. In a typical procedure, cells seeded at 20000 cells per well in 96-well white plates (Corning) were incubated with serially diluted compounds for 24 hours at 37° C. with 5% CO2. At the end of treatment, Nano-Glo HiBIT Lytic Detection reagents was added to the wells and luminescence was acquired on TECAN PSARK plate reader. Untreated cells were used as control. Data points were fit with a four-parameter equation to generate a concentration-response curve. IC50 values were calculated using a nonlinear regression analysis of the mean±SD from triplicate.

[5] = tested on: SU-DHL-1; assay: Cell viability assay (CellTiter-Glo 2.0), SU-DHL-1; assay type: cell-based; details: Homo sapiens, 96 h; SU-DHL-1 cells, 4 days
Procedure: SU-DHL-1 and SUP-M2 cell viability was determined by CellTiter-Glo 2.0 Cell Viability Assay (Promega). […] In a typical procedure, cells seeded at 1000 cells per well in 384-well white plates (Corning) were incubated with serially diluted compounds for 4 days at 37° C. with 5% CO2. At the end of treatment, CellTiter-Glo 2.0 was added to the wells and luminescence was acquired on TECAN PSARK plate reader. Untreated cells were used as control. Data points were fit with a four-parameter equation to generate a concentration-response curve. IC50 values were calculated using a nonlinear regression analysis of the mean±SD from triplicate.

[6] = tested on: MOLM-16; assay: Cell viability assay (CellTiter-Glo 2.0), MOLM-16; assay type: cell-based; details: MOLM16; MOLM-16 cells

## C[C@H]1CC2(CCN(c3ccc(C(=O)N4CCC(CN5CCC6(CC5)COc5c6ccc6c5CN([C@H]5CCC(=O)NC5=O)C6=O)CC4)cc3)CC2)CN1c1ccc(C#N)c(Cl)c1 [ARD-1, 2-chloro-4-((S)-8-(4-(4-((7-((S)-2,6-dioxopiperidin-3-yl)-6-oxo-7,8-dihydro-2H,6H-spiro[furo[2,3-e]isoindole-3,4′-piperidin]-1′-yl)methyl)piperidine-1-carbonyl)phenyl)-3-methyl-2,8-diazaspiro[4.5]decan-2-yl)benzonitrile]
[1]
  Dmax: > 75%

## C[C@@H]1N(c2ccc(C#N)c(Cl)c2)CCC12CCN(c1ccc(C(=O)N3CCC(CN4CCC5(CC4)COc4c5ccc5c4CN([C@H]4CCC(=O)NC4=O)C5=O)CC3)cc1)CC2 [ARD-2]
[1]
  Dmax: > 75%

## N#Cc1ccc(O[C@H]2CC[C@H](NC(=O)c3ccc(N4CCC(CN5CCC6(CC5)COc5c6ccc6c5CN([C@H]5CCC(=O)NC5=O)C6=O)CC4)nn3)CC2)cc1Cl [ARD-3, N-((1r,4r)-4-(3-chloro-4-cyanophenoxy)cyclohexyl)-6-(4-((7-((S)-2,6-dioxopiperidin-3-yl)-6-oxo-7,8-dihydro-2H,6H-spiro[furo[2,3-e]isoindole-3,4′-piperidin]-1′-yl)methyl)piperidin-1-yl)pyridazine-3-carboxamide]
[1]
  Dmax: > 75%

## CN(c1ccc(C#N)c(Cl)c1)[C@H]1CC[C@H](NC(=O)c2ccc(N3CCC(CN4CCC5(CC4)COc4c5ccc5c4CN([C@H]4CCC(=O)NC4=O)C5=O)CC3)nn2)CC1 [ARD-4, N-((1r,4r)-4-((3-chloro-4-cyanophenyl)(methyl)amino)cyclohexyl)-6-(4-((7-((S)-2,6-dioxopiperidin-3-yl)-6-oxo-7,8-dihydro-2H,6H-spiro[furo[2,3-e]isoindole-3,4′-piperidin]-1′-yl)methyl)piperidin-1-yl)pyridazine-3-carboxamide]
[1]
  Dmax: > 75%

## COc1cc(-c2cn(C)c(=O)c3cnc(N4CCC4)cc23)cc(OC)c1C(=O)N1CCC2(CCC(CN3CCC4(CC3)COc3c4ccc4c3CN(C3CCC(=O)NC3=O)C4=O)CC2)CC1 (centres unmarked) [BRD-1, 3-(1′-((3-(4-(6-(azetidin-1-yl)-2-methyl-1-oxo-1,2-dihydro-2,7-naphthyridin-4-yl)-2,6-dimethoxybenzoyl)-3-azaspiro[5.5]undecan-9-yl)methyl)-6-oxo-6,8-dihydro-2H,7H-spiro[furo[2,3-e]isoindole-3,4′-piperidin]-7-yl)piperidine-2,6-dione]
[2]
  Dmax: > 90%
  DC50: < 10 nM

## COc1cc(-c2cn(C)c(=O)c(C)c2C)cc(OC)c1C(=O)N1CCC2(CCC(CN3CCC4(CC3)COc3c4ccc4c3C(=O)N(C3CCC(=O)NC3=O)C4=O)CC2)CC1 (centres unmarked) [BRD-2, 1′-((3-(2,6-dimethoxy-4-(1,4,5-trimethyl-6-oxo-1,6-dihydropyridin-3-yl)benzoyl)-3-azaspiro[5.5]undecan-9-yl)methyl)-7-(2,6-dioxopiperidin-3-yl)-7-hydro-2H,6H-spiro[furo[2,3-e]isoindole-3,4′-piperidine]-6,8-dione]
[2]
  Dmax: > 90%
  DC50: 10 to 100 nM

## O=C1CCC(N2Cc3c(ccc4c3OCC43CCNCC3)C2=O)C(=O)N1 (centres unmarked) [Compound B1, 3-(6-oxo-6,8-dihydro-2H,7H-spiro[furo[2,3-e]isoindole-3,4′-piperidin]-7-yl)piperidine-2,6-dione]
[3]
  IC50: 1000 nM

## CCS(=O)(=O)c1ccc(CNC(=O)[C@H](CCC(N)=O)NC(=O)[C@@H]2CC[C@@H]3CCN(C(=O)CCCCN4CCC5(CC4)COc4c5ccc5c4CN([C@H]4CCC(=O)NC4=O)C5=O)C[C@H](NC(=O)c4cc5cc(C(=O)P(=O)(O)O)ccc5[nH]4)C(=O)N32)cc1 [STD 85, (2-(((5S,8S,10aR)-8-(((S)-5-amino-1-((4-(ethylsulfonyl)benzyl)amino)-1,5-dioxopentan-2-yl)carbamoyl)-3-(5-(7-((S)-2,6-dioxopiperidin-3-yl)-6-oxo-7,8-dihydro-2H,6H-spiro[furo[2,3-e]isoindole-3,4′-piperidin]-1′-yl)pentanoyl)-6-oxodecahydropyrrolo[1,2-a] [1,5]diazocin-5-yl)carbamoyl)-1H-indole-5-carbonyl)phosphonic acid]
[4]
  DC50: 100 to 1000 nM
  Dmax: ≥ 80%
[5]
  IC50: 1000 to 10000 nM
[6]
  IC50: 100 to 1000 nM

## CC(C)S(=O)(=O)c1ccc(CNC(=O)[C@H](CCC(N)=O)NC(=O)[C@@H]2CC[C@@H]3CCN(C(=O)CCCCN4CCC5(CC4)COc4c5ccc5c4CN([C@H]4CCC(=O)NC4=O)C5=O)C[C@H](NC(=O)c4cc5cc(C(=O)P(=O)(O)O)ccc5[nH]4)C(=O)N32)cc1 [STD 86, (2-(((5S,8S,10aR)-8-(((S)-5-amino-1-((4-(isopropylsulfonyl)benzyl)amino)-1,5-dioxopentan-2-yl)carbamoyl)-3-(5-(7-((S)-2,6-dioxopiperidin-3-yl)-6-oxo-7,8-dihydro-2H,6H-spiro[furo[2,3-e]isoindole-3,4′-piperidin]-1′-yl)pentanoyl)-6-oxodecahydropyrrolo[1,2-a] [1,5]diazocin-5-yl)carbamoyl)-1H-indole-5-carbonyl)phosphonic acid]
[4]
  DC50: 100 to 1000 nM
  Dmax: ≥ 80%
[5]
  IC50: 1000 to 10000 nM
[6]
  IC50: 100 to 1000 nM

From US20250195484A1, “CEREBLON LIGANDS AND USES THEREOF” (priority 2022, published 2025)
